# How the values were obtained:
# human Kv1.5 = target: T1, human Kv1.5 (Homo sapiens, UniProt P22460); experiment: Whole-cell patch-clamp in transfected HEK-293 cells, KV1.5; assay type: cell-based; settings: 10 μM and 100 μM, +40 mV
# T1 construct: KV1.5 (NM_002234), and TASK-1 (NM_002246); expressed in transfected cells; host or cells: HEK-293 (transient transfection)
# Experimental: The human embryonic kidney 293 (HEK-293) cell line was obtained from the American Type Culture Collection. HEK-293 cells were cultured in Dulbecco’s modified Eagle’s medium (DMEM-F12, Invitrogen Life Technologies) supplemented with 5% (v/v) fetal bovine serum (FBS) (Thermo Fisher Scientific) and 1% antibiotics (penicillin 100 U/ml y streptomycin 100 μg/ml) (Gibco, Thermo Fisher). The cells were maintained at 37 °C and 5% CO2 atmosphere.
# For the electrophysiological experiments, HEK-293 cells were transiently transfected with cDNA encoding human NaV1.5 (plasmid 145,374, Addgene), KV1.5 (NM_002234), and TASK-1 (NM_002246). […] The cells were incubated for 4 h in transfection medium OptiMEM (Invitrogen). […]
# For Nav1.5, the effect of 6f at both concentrations was tested using a repetitive single test voltage pulse at −10 mV (during 20 ms) from a holding potential of −80 mV, with intervals of 5s between pulses. For Kv1.5 and TASK-1, ramp voltage protocols were applied with pulse intervals of 20 s, and the currents were analyzed at +40 mV. […]
# After recording currents with stable amplitudes, the cells were treated with 6f and applied from the bath solution. Currents were continuously recorded during repetitive pulses until a stable effect was achieved. […] The inhibition percentage was calculated as follows: Inℎibition (%) = 100 ∗ (Icontrol − Idrug)/Icontrol.
# HEK-293 cells = experiment: MTT cytotoxicity assay; assay type: cell-based, human
# Experimental: Another method used to assess cytotoxicity was the MTT assay on HEK293 cells. Initially, the cells were seeded at 3000 cells per well in a 96-well plate. After 24 h, they were exposed to increasing compound concentrations (1, 5, 10, 25, 50, 100, 250 and 500 μM) for 72 h. The cells cultured in a medium supplemented with 10% FBS were the positive control for cell viability. Each condition was evaluated triplicate in independent experiments. The ROCHE Cell Proliferation Kit I, MTT (Cat. no. 11465007001), was used, following the manufacturer's indications. Briefly, 10 μl of the labeling reagent was added, and the plates were incubated at 37 °C for 4 h. Subsequently, 100 μl of solubilization solution was added to each well, and the plates were incubated overnight in the dark. Finally, optical density was measured at 570 nm using a microplate reader (Thermo Fisher Scientific). The optical density measurements were used to calculate cell viability, normalizing the data to the positive control. Results were expressed as a percentage of cell viability relative to this control. The IC50 value was determined by fitting a dose-response curve using a nonlinear regression model with a four-parameter logistic equation. The experimental data analysis was performed using SigmaPlot version 12.0 (Systat Software Inc).
# human erythrocytes = experiment: Hemolysis assay; assay type: cell-based; settings: 0.2–400 μM, 2 hours, 37 °C
# Experimental: To evaluate cytotoxicity, the hemolysis of the compounds with the best simultaneous blocking activity on the channels (6e, 6f, 7a, 7b and 7c) was considered, modifying the protocol of Chen 2018 ([112]). Thus, non-heparinized human blood was collected. Erythrocytes were washed three times in 1× PBS (phosphate-buffered saline: NaCl, 8 g/L; KCl, 0.2 g/L; Na2HPO4, 1.44 g/L; and KH2PO4, 0.24 g/L; pH 7.4) and then used to prepare a 3% red blood cell (RBC) suspension. The assay was performed in a 96-well polypropylene microplate.
# The compounds were prepared from 200 mM stock solutions in DMSO. Subsequently, 1:2 serial dilutions were made in 1× PBS, with final concentrations from 400 to 0.2 μM to a final volume of 200 μl per well. The microplate was incubated for 2 h at 37 °C and centrifuged at 3400 rpm for 5 min. Finally, 100 μl of the supernatant was transferred and measured in a 96-well plate. Hemoglobin release was monitored by photometric analysis of the supernatant at 540 nm using an Epoch Microplate Spectrophotometer (BioTek Instruments, Inc. Winooski, Vermont 05404-0998).
# A 3% RBC suspension treated with Tween 20 was used to obtain total lysis as a positive control. Other authors who performed hemolysis assays have also considered this and other detergents, such as Triton X-100 and Sodium Dodecyl Sulfate (SDS) as positive controls ([113], [114], [115], [116]). The negative control was a suspension of red blood cells with PBS. Each experiment was performed in triplicate at all concentrations used. The percentage of hemolysis was calculated with the following (Equation 1), where Ad: absorbance of the dilution, A0: absorbance of the blank (RBC suspension with PBS), and At: total absorbance (positive control).(1) %hemolysis=Ad−A0/At−A0x100
# T1 sequence (P22460 whole entry): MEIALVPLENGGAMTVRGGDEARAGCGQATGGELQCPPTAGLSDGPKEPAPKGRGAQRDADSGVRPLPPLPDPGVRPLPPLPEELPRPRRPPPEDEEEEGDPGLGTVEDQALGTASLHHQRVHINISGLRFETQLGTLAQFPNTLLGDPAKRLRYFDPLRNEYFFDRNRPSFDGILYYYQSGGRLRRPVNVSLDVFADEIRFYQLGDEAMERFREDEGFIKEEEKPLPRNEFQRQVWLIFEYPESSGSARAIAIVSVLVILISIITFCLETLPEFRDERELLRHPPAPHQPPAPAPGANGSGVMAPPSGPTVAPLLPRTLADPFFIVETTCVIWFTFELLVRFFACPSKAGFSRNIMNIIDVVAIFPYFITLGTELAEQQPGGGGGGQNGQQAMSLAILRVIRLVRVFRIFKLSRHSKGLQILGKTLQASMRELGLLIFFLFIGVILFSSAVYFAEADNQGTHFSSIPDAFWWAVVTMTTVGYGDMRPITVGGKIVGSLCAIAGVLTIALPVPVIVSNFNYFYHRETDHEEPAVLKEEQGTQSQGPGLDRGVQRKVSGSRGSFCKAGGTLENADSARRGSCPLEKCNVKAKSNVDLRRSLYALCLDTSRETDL
compound,measurement,setting,value
"CCCCN(CCCC)CC(=O)Nc1ccc(OC)cc1OC [Compound 6f, 2-(dibutylamine)-N-(2,4-dimethoxiphenyl)acetamide]",Blockade of KV1.5 in HEK cells,human Kv1.5,significant blockade by 6f only at 100 μM
same,Concentrations with significant cytotoxic effects (MTT),HEK-293 cells; 72 h,higher than 129 μM
same,IC50,"HEK-293 cells; Homo sapiens, HEK293, 72 h, read-out: IC50 cell viability (MTT)",130 µM
same,Hemolytic effect,human erythrocytes,no hemolytic effect
